# According to patent publication US12344610B2, “APOL1 inhibitors and methods of use” (Maze Therapeutics, Inc., priority 2022, dated 2025):
# Where two headings read alike, the source gives them in different places.
# Columns and labels:
# Assay type in all cases: cell-based
# Conditions in all cases: geometric mean of at least 2 assay runs, † = single assay run
# [1] = test system: HEK293 cells overexpressing APOL1 G2; assay: APOL1 G2 HEK293 cell rescue assay (reversal of cell death caused by overexpression of APOL1)
# Outline: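 EC50 is the half-maximal effective concentration for reversing cell death driven by APOL1 G2 overexpression in HEK293 cells. Reported as geometric mean of at least 2 runs on separate days, each run averaging duplicate wells per plate; some values from a single run.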
# [2] = test system: Trypanosoma brucei Lister 427 VSG221 with APOL1 G0 recombinant protein; assay: APOL1 G0 trypanosome cell rescue assay (Example B5)
# Outline: (§1)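 Recombinant mature APOL1 (residues 28-398, His-tag removed, E. coli-expressed, refolded from inclusion bodies, DDM buffer) at […] added with 250 trypanosomes/well in modified HMI-9 media. Duplicate 11-point 2-fold compound series, 0.4% DMSO; 20 h at 37° C, 5% CO2, then CellTiter-Glo luminescence for viability.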
# [3] = test system: Trypanosoma brucei Lister 427 VSG221 with APOL1 G1 recombinant protein; assay: APOL1 G1 trypanosome cell rescue assay (Example B5)
# Outline: as §1
# [4] = test system: Trypanosoma brucei Lister 427 VSG221 with APOL1 G2 recombinant protein; assay: APOL1 G2 trypanosome cell rescue assay (Example B5)
# Outline: as §1
# [5] = Homo sapiens, HEK293, HEK293 overexpressing APOL1 G2
# [6] = Trypanosoma brucei, 20 h, read-out: APOL1 G0 Trypanosome Rescue EC50, Trypanosoma brucei Lister 427 VSG221 with APOL1 G0 recombinant protein, 20 hours, CellTiter-Glo
# [7] = Trypanosoma brucei, 20 h, read-out: APOL1 G1 Trypanosome Rescue EC50, Trypanosoma brucei Lister 427 VSG221 with APOL1 G1 recombinant protein, 20 hours, CellTiter-Glo
# [8] = Trypanosoma brucei, 20 h, read-out: APOL1 G2 Trypanosome Rescue EC50, Trypanosoma brucei Lister 427 VSG221 with APOL1 G2 recombinant protein, 20 hours, CellTiter-Glo
# [9] = read-out: APOL1 G0 Trypanosome Rescue EC50, Trypanosoma brucei Lister 427 VSG221 with APOL1 G0 recombinant protein, 20 hours, CellTiter-Glo
# [10] = read-out: APOL1 G1 Trypanosome Rescue EC50, Trypanosoma brucei Lister 427 VSG221 with APOL1 G1 recombinant protein, 20 hours, CellTiter-Glo
# [11] = read-out: APOL1 G2 Trypanosome Rescue EC50, Trypanosoma brucei Lister 427 VSG221 with APOL1 G2 recombinant protein, 20 hours, CellTiter-Glo
Structure (SMILES),"EC50 [1, 5]","EC50 [2, 6]","EC50 [3, 7]","EC50 [4, 8]",EC50 ([1]; HEK293 overexpressing APOL1 G2),"EC50 [2, 9]","EC50 [3, 10]","EC50 [4, 11]"
"CC(C)N1C(=O)CCc2cc(OCCN3CCC4(CC3)C(=O)Nc3ccc(Cl)cc34)ccc21 [Compound 97, 5-chloro-1′-(2-{[2-oxo-1-(propan-2-yl)-1,2,3,4-tetrahydroquinolin-6-yl]oxy}ethyl)-1,2-dihydrospiro[indole-3,4′-piperidin]-2-one]",44.6 nM,99 nM,98.4 nM,40.6 nM,,,,
"CS(=O)(=O)C1(c2c(F)cc(OCCN3CCC4(CC3)C(=O)Nc3ccc(C#N)cc34)cc2F)COC1 [Compound 84, 1′-{2-[3,5-difluoro-4-(3-methanesulfonyloxetan-3-yl)phenoxy]ethyl}-2-oxo-1,2-dihydrospiro[indole-3,4′-piperidine]-5-carbonitrile]",64.9 nM,101 nM,144 nM,50 nM,,,,
"CS(=O)(=O)C1(c2ccc(OCCN3CCC4(CC3)C(=O)Nc3ccc(Cl)cc34)cc2)CC(O)C1 (stereo not drawn) [Compound 269, 5-chloro-1′-(2-{4-[(cis) or (trans)-3-hydroxy-1-methanesulfonylcyclobutyl]phenoxy}ethyl)-1,2-dihydrospiro[indole-3,4′-piperidin]-2-one]",,,,,102 nM,207 nM,277 nM,79.7 nM
"O=C1Nc2ccc(Cl)cc2C12CCN(CCOc1ccc3c(cnn3[C@H]3C[C@H](O)C3)c1)CC2 [Compound 86, 5-chloro-1′-[2-({1-[(trans)-3-hydroxycyclobutyl]-1H-indazol-5-yl}oxy)ethyl]-1,2-dihydrospiro[indole-3,4′-piperidin]-2-one]",46.5 nM,96.4 nM,137 nM,38.4 nM,,,,
"CC(C)N1C(=O)CCc2cc(OCCN3CCC4(CC3)C(=O)Nc3ccc(C#N)cc34)ccc21 [Compound 96, 2-oxo-1′-(2-{[2-oxo-1-(propan-2-yl)-1,2,3,4-tetrahydroquinolin-6-yl]oxy}ethyl)-1,2-dihydrospiro[indole-3,4′-piperidine]-5-carbonitrile]",50.5 nM,122 nM,143 nM,53 nM,,,,
"CC1(S(=O)(=O)c2ccc(OCCN3CCC4(CC3)C(=O)Nc3ccc(Cl)cc34)cc2)COC1 [Compound 92, 5-chloro-1′-(2-{4-[(3-methyloxetan-3-yl)sulfonyl]phenoxy}ethyl)-1,2-dihydrospiro[indole-3,4′-piperidin]-2-one]",51.5 nM,84.4 nM,99.3 nM,28.5 nM,,,,
"Cn1c(=O)[nH]c2cc(OCCN3CCC4(CC3)C(=O)Nc3ccc(Cl)cc34)ccc21 [Compound 88, 5-chloro-1′-{2-[(1-methyl-2-oxo-2,3-dihydro-1H-1,3-benzodiazol-5-yl)oxy]ethyl}-1,2-dihydrospiro[indole-3,4′-piperidin]-2-one]",121 nM,451 nM,561 nM,138 nM,,,,
"CC1(S(=O)(=O)c2ccc(OCCN3CCC4(CC3)C(=O)Nc3ccc(C#N)cc34)cc2)COC1 [Compound 93, 1′-(2-{4-[(3-methyloxetan-3-yl)sulfonyl]phenoxy}ethyl)-2-oxo-1,2-dihydrospiro[indole-3,4′-piperidine]-5-carbonitrile]",90.9 nM,156 nM,264 nM,56.9 nM,,,,
"CS(=O)(=O)N(CCO)c1ccc(OCCN2CCC3(CC2)C(=O)Nc2ccc(Cl)cc23)cc1 [Compound 98, N-[4-(2-{5-chloro-2-oxo-1,2-dihydrospiro[indole-3,4′-piperidin]-1′-yl}ethoxy)phenyl]-N-(2-hydroxyethyl)methanesulfonamide]",54.4 nM,207 nM,259 nM,72.2 nM,,,,
"CS(=O)(=O)c1c(F)cc(OCCN2CCC3(CC2)C(=O)Nc2ccc(Cl)cc23)cc1F [Compound 89, 5-chloro-1′-[2-(3,5-difluoro-4-methanesulfonylphenoxy)ethyl]-1,2-dihydrospiro[indole-3,4′-piperidin]-2-one]",55.7 nM,101 nM,114 nM,32.7 nM,,,,
"C[C@]1(O)C[C@@H](n2c(=O)cnc3cc(OCCN4CCC5(CC4)C(=O)Nc4ccc(Cl)cc45)cnc32)C1 [Compound 358, 5-chloro-1′-[2-({3-oxo-4-[(cis)-3-hydroxy-3-methylcyclobutyl]-3H,4H-pyrido[2,3-b]pyrazin-7-yl}oxy)ethyl]-1,2-dihydrospiro[indole-3,4′-piperidin]-2-one]",65 nM,62.1 nM,75.2 nM,31.3 nM,,,,
"COC(=O)C1(S(=O)(=O)c2ccc(OCCN3CCC4(CC3)C(=O)Nc3ccc(Cl)cc34)cc2)CC1 [Compound 91, methyl 1-[4-(2-{5-chloro-2-oxo-1,2-dihydrospiro[indole-3,4′-piperidin]-1′-yl}ethoxy)benzenesulfonyl]cyclopropane-1-carboxylate]",24.5 nM,54.6 nM,82.7 nM,20.4 nM,,,,
"CS(=O)(=O)c1c(F)cc(OCCN2CCC3(CC2)C(=O)Nc2ccc(C#N)cc23)cc1F [Compound 90, 1′-[2-(3,5-difluoro-4-methanesulfonylphenoxy)ethyl]-2-oxo-1,2-dihydrospiro[indole-3,4′-piperidine]-5-carbonitrile]",151 nM,546 nM,679 nM,163 nM,,,,
"CC(c1ncc(OCCN2CCC3(CC2)C(=O)Nc2ccc(Cl)cc23)cn1)S(C)(=O)=O (single isomer, unassigned) [Compound 3, 5-chloro-1′-[2-({2-[(1R) or (1S)-1-methanesulfonylethyl]pyrimidin-5-yl}oxy)ethyl]-1,2-dihydrospiro[indole-3,4′-piperidin]-2-one]",,,,,142 nM,248 nM,323 nM,92 nM
"O=C1Nc2ccc(Cl)cc2C12CCN(CCOc1ccc3[nH]ncc3c1)CC2 [Compound 87, 5-chloro-1′-[2-(2H-indazol-5-yloxy)ethyl]-1,2-dihydrospiro[indole-3,4′-piperidin]-2-one]",103 nM,268 nM,383 nM,95.8 nM,,,,
"CC(O)c1ncc(OCCN2CCC3(CC2)C(=O)Nc2ccc(C#N)cc23)cc1C(F)(F)F (single isomer, unassigned) [Compound 377, 1′-[2-({6-(1S) or (1R)-1-hydroxyethyl]-5-(trifluoromethyl)pyridin-3-yl}oxy)ethyl]-2-oxo-1,2-dihydrospiro[indole-3,4′-piperidine]-5-carbonitrile]",,,,,85.9 nM,205 nM,271 nM,97.8 nM
"CS(=O)(=O)C1(c2ncc(OCCN3CCC4(CC3)C(=O)Nc3ccc(OC(F)F)cc34)cn2)CC1 [Compound 6, 5-(difluoromethoxy)-1′-(2-{[2-(1-methanesulfonylcyclopropyl)pyrimidin-5-yl]oxy}ethyl)-1,2-dihydrospiro[indole-3,4′-piperidin]-2-one]",121 nM,381 nM,470 nM,137 nM,,,,
"CS(=O)(=O)C1(c2ncc(OCCN3CCC4(CC3)C(=O)Nc3ccc(C(F)F)cc34)cn2)CC1 [Compound 5, 5-(difluoromethyl)-1′-(2-{[2-(1-methanesulfonylcyclopropyl)pyrimidin-5-yl]oxy}ethyl)-1,2-dihydrospiro[indole-3,4′-piperidin]-2-one]",213 nM,150 nM,171 nM,52 nM,,,,
